Tests used:
c-Src kinase domain [1] = molecular target: T1, c-Src kinase domain (Homo sapiens, UniProt P12931); assay: pTyr-Var library bacterial peptide display kinase screen (enrichment scores); format: biochemical; conditions: for c-Src mean of log2(enrichment): mean of log2 of enrichment over R1-R4; for c-Src enrich. R1 / c-Src enrich. R3 / c-Src enrich. R4: pTyr-Var library, enrichment score; for c-Src enrich. R1: replicate 1; for c-Src enrich. R3: replicate 3; for c-Src enrich. R4: replicate 4
Fyn kinase domain = assay: as above; format: biochemical, human; conditions: for Fyn mean of log2(enrichment): mean of log2 of enrichment over R1-R4; for Fyn enrich. R1 / Fyn enrich. R3 / Fyn enrich. R4: pTyr-Var library, enrichment score; for Fyn enrich. R1: replicate 1; for Fyn enrich. R3: replicate 3; for Fyn enrich. R4: replicate 4
Hck kinase domain = assay: as above; format: biochemical, human; conditions: for Hck mean of log2(enrichment): mean of log2(variant) / mean of log2(reference), R1-R4; for Hck enrich. R1 / Hck enrich. R3 / Hck enrich. R4: pTyr-Var library, enrichment score; for Hck enrich. R1: replicate 1; for Hck enrich. R3: replicate 3; for Hck enrich. R4: replicate 4
c-Abl kinase domain [2] = molecular target: T2, c-Abl kinase domain (Mus musculus, UniProt P00520); assay: as above; format: biochemical; conditions: for c-Abl mean of log2(enrichment): mean of log2 of enrichment over R1-R4; for c-Abl enrich. R1 / c-Abl enrich. R3 / c-Abl enrich. R4: pTyr-Var library, enrichment score; for c-Abl enrich. R1: replicate 1; for c-Abl enrich. R3: replicate 3; for c-Abl enrich. R4: replicate 4
T2 sequence (P00520 242-493 limits assumed): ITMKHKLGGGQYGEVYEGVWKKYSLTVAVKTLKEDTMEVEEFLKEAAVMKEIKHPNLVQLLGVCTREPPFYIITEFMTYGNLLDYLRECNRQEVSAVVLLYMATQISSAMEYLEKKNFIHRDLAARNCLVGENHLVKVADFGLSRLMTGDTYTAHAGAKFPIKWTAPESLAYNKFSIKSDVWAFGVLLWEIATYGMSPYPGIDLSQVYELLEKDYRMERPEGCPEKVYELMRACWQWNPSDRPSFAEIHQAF

Jak2 = assay: as above; format: biochemical, human; conditions: for Jak2 mean of log2(enrichment): mean of log2 of enrichment over R1-R3; for Jak2 enrich. R1 / Jak2 enrich. R3: pTyr-Var library, enrichment score; for Jak2 enrich. R1: replicate 1; for Jak2 enrich. R3: replicate 3
AncSZ kinase domain = assay: as above; format: biochemical; conditions: for AncSZ mean of log2(enrichment): mean of log2 of enrichment over R1-R5; for AncSZ enrich. R1 / AncSZ enrich. R3 / AncSZ enrich. R4 / AncSZ enrich. R5: pTyr-Var library, enrichment score; for AncSZ enrich. R1: replicate 1; for AncSZ enrich. R3: replicate 3; for AncSZ enrich. R4: replicate 4; for AncSZ enrich. R5: replicate 5
Fer kinase domain = assay: as above; format: biochemical, mouse; conditions: for Fer mean of log2(enrichment): mean of log2 of enrichment over R1-R4; for Fer enrich. R1 / Fer enrich. R3 / Fer enrich. R4: pTyr-Var library, enrichment score; for Fer enrich. R1: replicate 1; for Fer enrich. R3: replicate 3; for Fer enrich. R4: replicate 4
Fes = assay: as above; format: biochemical; conditions: mean of log2 of enrichment over R1-R6
FGFR1 kinase domain = assay: as above; format: biochemical, human; conditions: n = 5
FGFR3 kinase domain = assay: as above; format: biochemical, human; conditions: n = 5
EPHB1 kinase domain = assay: as above; format: biochemical, human; conditions: mean of log2 enrichment of reference peptide, n = 4
EPHB2 kinase domain = assay: as above; format: biochemical, human; conditions: mean of log2 enrichment of reference peptide, n = 4
MERTK kinase domain = assay: as above; format: biochemical, human; conditions: for mean of log2(reference): mean of log2 enrichment of reference peptide, n = 4
c-Src SH2 domain = c-Src SH2 domain (Homo sapiens, UniProt P12931); assay: pTyr-Var library SH2 domain screen with SH2-dynabeads (enrichment scores); conditions: mean of log2 enrichment of reference peptide, R1-R3; sheet c-Src
SHP2 C-SH2 domain = assay: as above; conditions: R1-R3
Grb2 SH2 domain = assay: as above; conditions: R1-R3
c-Abl kinase domain [3] = molecular target: T2, c-Abl kinase domain; assay: ADP-Quest continuous fluorimetric kinase assay (Michaelis-Menten parameters and initial rates); format: biochemical; conditions: peptide 100 μM, kinase 10–50 nM; Figure 2C
c-Src kinase domain [4] = molecular target: T1, c-Src kinase domain; assay: as above; format: biochemical
[5] = ADP-Quest assay, c-Src kinase domain 10 nM, 100 μM ATP, 37 °C, three to five replicates, error = standard error of global Michaelis-Menten fit

Substance | c-Src mean of log2(enrichment) (c-Src kinase domain [1]) | c-Src enrich. R1 (c-Src kinase domain [1]) | c-Src enrich. R3 (c-Src kinase domain [1]) | c-Src enrich. R4 (c-Src kinase domain [1]) | Fyn mean of log2(enrichment) (Fyn kinase domain) | Fyn enrich. R1 (Fyn kinase domain) | Fyn enrich. R3 (Fyn kinase domain) | Fyn enrich. R4 (Fyn kinase domain) | Hck mean of log2(enrichment) (Hck kinase domain) | Hck enrich. R1 (Hck kinase domain) | Hck enrich. R3 (Hck kinase domain) | Hck enrich. R4 (Hck kinase domain) | c-Abl mean of log2(enrichment) (c-Abl kinase domain [2]) | c-Abl enrich. R1 (c-Abl kinase domain [2]) | c-Abl enrich. R3 (c-Abl kinase domain [2]) | c-Abl enrich. R4 (c-Abl kinase domain [2]) | Jak2 mean of log2(enrichment) (Jak2) | Jak2 enrich. R1 (Jak2) | Jak2 enrich. R3 (Jak2) | AncSZ mean of log2(enrichment) (AncSZ kinase domain) | further results
TTGLIYIGSHD [AASDH_Y870] | -1.294 | 0.3921 | 0.3853 | 0.4379 | -1.48 | 0.4689 | 0.3674 | 0.214 | 0.4597 | 0.6399 | 0.4036 | 0.2897 | -1.045 | 0.5107 | 0.4932 | 0.3951 | -0.485 | 0.7507 | 0.724 | -0.4681 | AncSZ enrich. R1 (AncSZ kinase domain): 0.7227; AncSZ enrich. R3 (AncSZ kinase domain): 0.6145; AncSZ enrich. R4 (AncSZ kinase domain): 0.7736; AncSZ enrich. R5 (AncSZ kinase domain): 0.7032; Fer mean of log2(enrichment) (Fer kinase domain): -1.298; Fer enrich. R1 (Fer kinase domain): 0.3587; Fer enrich. R3 (Fer kinase domain): 0.5035; Fer enrich. R4 (Fer kinase domain): 0.5633; Fes mean of log2(enrichment) (Fes): -0.4107; mean of log2(reference) (FGFR1 kinase domain): -1.189; mean of log2(reference) (FGFR3 kinase domain): -0.6492; mean of log2(reference) (EPHB1 kinase domain): -0.5976; mean of log2(reference) (EPHB2 kinase domain): -0.8783; mean of log2(reference) (MERTK kinase domain): -1.687; mean of log2(reference) (c-Src SH2 domain): -0.7916; mean of log2(reference) (SHP2 C-SH2 domain): -0.7271; mean of log2(reference) (Grb2 SH2 domain): 0.04072
Ac-GPDECIYDMFPFKKKG-NH2 [Src Consensus, c-Src consensus substrate peptide from X5-Y-X5 screen] | – | – | – | – | – | – | – | – | – | – | – | – | – | – | – | – | – | – | – | – | phosphorylation of consensus peptide by c-Abl (initial rate relative to cognate consensus) (c-Abl kinase domain [3]): efficiently phosphorylated; Km (c-Src kinase domain [4]; [5]): 196 ± 38 µM; kcat (c-Src kinase domain [4]; [5]): 4.9±0.4 s^–1; phosphorylation of consensus peptide by c-Src (initial rate relative to cognate consensus) (c-Src kinase domain [4]; high concentration: peptide 100 μM, kinase 10–50 nM, Figure 2C): selective
GMAHNYRNSSQ [AASS_Y188] | -1.404 | 0.429 | 0.2705 | 0.4776 | -1.328 | 0.4068 | 0.5016 | 0.6969 | 0.4135 | 0.473 | 0.3667 | 0.3337 | -1.694 | 0.3586 | 0.2586 | 0.2717 | -1.234 | 0.5584 | 0.3848 | -0.7891 | AncSZ enrich. R1 (AncSZ kinase domain): 0.6022; AncSZ enrich. R3 (AncSZ kinase domain): 0.4422; AncSZ enrich. R4 (AncSZ kinase domain): 0.5318; AncSZ enrich. R5 (AncSZ kinase domain): 0.777; Fer mean of log2(enrichment) (Fer kinase domain): -1.39; Fer enrich. R1 (Fer kinase domain): 0.41; Fer enrich. R3 (Fer kinase domain): 0.4208; Fer enrich. R4 (Fer kinase domain): 0.3128; Fes mean of log2(enrichment) (Fes): -1.191; mean of log2(reference) (FGFR1 kinase domain): -1.437; mean of log2(reference) (FGFR3 kinase domain): -1.231; mean of log2(reference) (EPHB1 kinase domain): -2.084; mean of log2(reference) (EPHB2 kinase domain): -1.13; mean of log2(reference) (MERTK kinase domain): -1.316; ref. mean (MERTK kinase domain; pTyr-Var library, reference peptide enrichment, mean of n = 4): 0.4184; mean of log2(reference) (c-Src SH2 domain): -1.119; mean of log2(reference) (SHP2 C-SH2 domain): -0.8121; mean of log2(reference) (Grb2 SH2 domain): -0.5728

Reference: publication PMC10065799, “High-throughput profiling of sequence recognition by tyrosine kinases and SH2 domains using bacterial peptide display” (eLife, 2023)
